In patent US20260176289A1, “SMALL MOLECULE INHIBITORS OF KRAS PROTEINS” (Merck Sharp & Dohme LLC, priority 2022, published 2026):
Where two headings read alike, the source gives them in different places.

What was measured:
KRAS-WT = KRAS-WT (Homo sapiens, UniProt P01116); test: SOS-catalyzed nucleotide exchange assay (Procedure A, TR-FRET), KRAS-WT; type: biochemical; conditions: nucleotide exchange, read-out: KRAS WT GNE IC50
Outline: (§1)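 Compounds (10-point, 3-fold) were preincubated 60 min at room temperature with a biotinylated RAS/Bodipy-GDP/Tb-streptavidin TR-FRET complex. Exchange was started with human SOS plus 3 mM GTP. RAS/SOS: G12C 3/40 nM, WT 1/40 nM, NRAS 1.25/40 nM (60 min); G12V 1.25/160 nM (90 min). The 520/495 ratio was fit four-parameter.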

[1] = target: KRAS-G12C (C51S/C80L/C118S) (Homo sapiens, UniProt P01116, C118S/C51S/C80L/G12C); test: SOS-catalyzed nucleotide exchange assay (Procedure A, TR-FRET), KRAS-G12C; type: biochemical; conditions: nucleotide exchange, Procedure A; read-out: KRAS G12C GNE IC50
Outline: as §1

KRAS-G12D = KRAS-G12D (Homo sapiens, UniProt P01116, G12D); test: SOS-catalyzed nucleotide exchange assay (Procedure A, TR-FRET), KRAS-G12D; type: biochemical; conditions: nucleotide exchange, read-out: KRAS G12D GNE IC50
Outline: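 Signal ratio (520/495 nm, excitation 340 nm) reports Bodipy-GDP retention on biotinylated RAS after SOS-catalyzed exchange with 3 mM GTP. SOS was 40 nM, except 160 nM for G12V. Room-temperature exchange lasted 60 min (90 min for G12V), following a 60 min compound preincubation.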

KRAS-G12V = KRAS-G12V (Homo sapiens, UniProt P01116, G12V); test: SOS-catalyzed nucleotide exchange assay (Procedure A, TR-FRET), KRAS-G12V; type: biochemical; conditions: nucleotide exchange, read-out: KRAS G12V GNE IC50
Outline: as §1

KRAS-G13D = KRAS-G13D (Homo sapiens, UniProt P01116, G13D); test: SOS-catalyzed nucleotide exchange assay (Procedure A, TR-FRET), KRAS-G13D; type: biochemical; conditions: nucleotide exchange, Procedure A; read-out: KRAS G13D GNE IC50
HRAS = HRAS (Homo sapiens, UniProt P01112); test: SOS-catalyzed nucleotide exchange assay (Procedure A, TR-FRET), HRAS; type: biochemical; conditions: read-out: HRAS GNE IC50
Source text: Procedure for SOS-Catalyzed Nucleotide Exchange Assay for KRAS-WT, G12C/D/V, G13D, HRAS, and NRAS (Procedure A)
Recombinant KRAS-G12C protein used in this assay has an additional triple mutation (C51S/C80L/C118S). Whereas KRAS-WT, G12D/V, G13D, HRAS and NRAS are in context of their WT protein sequence background. Specifically, the SOS-catalyzed nucleotide exchange assay utilizes a preformed TR-FRET complex containing a specific biotinylated RAS protein (KRAS-WT, G12C/V/D, G13D, HRAS, NRAS; described above) with Bodipy-GDP, and Terbium-streptavidin. Compounds are preincubated with this complex for 60 minutes. Subsequently, recombinant human SOS protein and unlabeled GTP are added to initiate the exchange reaction. Small molecule inhibitors stabilize the Bodipy-GDP complex whereas the untreated protein rapidly exchanges Bodipy-GDP for unlabeled GTP resulting in reduced TR-FRET signal.
To assemble the preformed TR-FRET complexes, each biotinylated RAS protein is diluted to 2 μM in an EDTA Buffer (20 mM HEPES pH 7.5, 50 mM sodium chloride, 10 mM EDTA, and 0.01% Tween) and incubated at room temperature for one hour. This mixture is then further diluted to 90 nM in an Assay Buffer (20 mM HEPES pH 7.5, 150 mM sodium chloride, 10 mM magnesium chloride, and 0.005% Tween) containing 15 nM of Terbium-Streptavidin (Invitrogen, catalog #PV3577) and 900 nM of Bodipy-GDP (Invitrogen, catalog #G22360) and incubated at room temperature for six hours. It should be noted that this preformed TR-FRET complex for each of the RAS protein were made ahead of time, aliquoted and stored at −80° C. until the day of the experiment.
Each test compound (10 mM stock in DMSO) is diluted in DMSO to make a final-10-point, 3-fold dilution and is acoustically dispensed into a 384-well assay plate (Corning, catalog #3820) using an Echo 550 (Labcyte). Each well of the assay plate receives 3 μL of a specific 3×RAS preformed TR-FRET complex and 3 μL of Assay Buffer and is incubated at room temperature for 60 minutes (preincubation time). Each well then receives 3 μL of 3×recombinant human SOS protein and GTP (Sigma, G8877) in Assay Buffer and is incubated at room temperature for 30 minutes (G13D), 60 minutes (KRAS WT/G12C/D, H/NRAS) or 90 minutes for G12V. The final reaction in each well of 9 μL consists of 3 mM GTP, specific Ras and SOS proteins in the following concentrations: KRAS-G12C/SOS=3 nM/40 nM, KRAS-WT and G12D/SOS=1 nM/40 nM, KRAS-G12V/SOS=1.25 nM/160 nM. KRAS-G13D/SOS=1.25 nM/0 nM, HRAS and NRAS=1.25 nM/40 nM.
The time-resolved fluorescence resonance energy transfer (TR-FRET) signal is measured on an Envision (PerkinElmer) plate reader: Excitation filter=340 nm; emission 1=495 nm; emission2=520 nm; dichroic mirror=D400/D505; delay time=[…]. The signal of each well is determined as the ratio of the emission at 520 nm to that at 495 nm. Percent effect of each well is determined after normalization to control wells containing DMSO (no effect) or a saturating concentration of inhibitor (max effect). The apparent effect as a function of compound concentration is fit to a four-parameter logistic equation.

MKN-1 cells = test: Cellular phospho-ERK assay, MKN-1 cells (amplified wild-type KRAS); type: cell-based; conditions: Homo sapiens, read-out: MKN1 pERK IC50
Outline: (§2)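 Readout: p-ERK/total ERK ratio measured by Alpha SureFire Ultra multiplex in lysates after 2 h compound exposure (37 °C, 5% CO2). Dosing ran 10 points, 1:3 dilutions, highest final concentration 30 μM. IC50 values derived by four-parameter logistic regression.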

AsPC-1 cells = test: Cellular phospho-ERK assay, AsPC-1 cells (homozygous KRAS-G12D); type: cell-based; conditions: Homo sapiens, ASPC1, 2 h, read-out: AsPC1 pERK IC50
Outline: as §2

SW620 cells = test: Cellular phospho-ERK assay, SW620 cells (homozygous KRAS-G12V); type: cell-based; conditions: Homo sapiens, read-out: SW620 pERK IC50
Outline: as §2

[2] = SW-620, 2 hours compound incubation

Sequence of KRAS-WT (P01116 with tags, fused parts or gaps isoform P01116-2): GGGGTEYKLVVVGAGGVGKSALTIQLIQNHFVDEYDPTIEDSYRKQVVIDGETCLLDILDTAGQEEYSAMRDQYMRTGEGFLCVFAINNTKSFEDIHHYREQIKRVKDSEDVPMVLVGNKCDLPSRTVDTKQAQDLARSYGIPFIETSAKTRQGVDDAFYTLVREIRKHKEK
Sequence of KRAS-G13D (P01116 with tags, fused parts or gaps isoform P01116-2 G13D): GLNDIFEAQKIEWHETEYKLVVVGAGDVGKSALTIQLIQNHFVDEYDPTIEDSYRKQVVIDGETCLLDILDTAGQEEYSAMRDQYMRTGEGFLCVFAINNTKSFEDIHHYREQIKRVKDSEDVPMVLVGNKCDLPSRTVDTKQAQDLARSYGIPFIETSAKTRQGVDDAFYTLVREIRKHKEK
Sequence of KRAS-G12C (C51S/C80L/C118S) (P01116 with tags, fused parts or gaps isoform P01116-2 G12C/C51S/C80L/C118S): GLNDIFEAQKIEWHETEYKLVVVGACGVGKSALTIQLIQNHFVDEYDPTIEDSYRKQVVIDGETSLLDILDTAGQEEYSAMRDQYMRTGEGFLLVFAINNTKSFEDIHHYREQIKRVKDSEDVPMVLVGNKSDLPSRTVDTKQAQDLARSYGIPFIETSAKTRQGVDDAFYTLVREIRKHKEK
Sequence of KRAS-G12D (P01116 with tags, fused parts or gaps isoform P01116-2 G12D): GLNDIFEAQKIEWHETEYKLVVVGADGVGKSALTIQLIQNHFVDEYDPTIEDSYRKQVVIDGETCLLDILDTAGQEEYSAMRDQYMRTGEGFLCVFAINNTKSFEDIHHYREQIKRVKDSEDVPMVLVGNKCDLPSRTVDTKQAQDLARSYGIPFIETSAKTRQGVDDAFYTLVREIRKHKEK
Sequence of KRAS-G12V (P01116 with tags, fused parts or gaps isoform P01116-2 G12V): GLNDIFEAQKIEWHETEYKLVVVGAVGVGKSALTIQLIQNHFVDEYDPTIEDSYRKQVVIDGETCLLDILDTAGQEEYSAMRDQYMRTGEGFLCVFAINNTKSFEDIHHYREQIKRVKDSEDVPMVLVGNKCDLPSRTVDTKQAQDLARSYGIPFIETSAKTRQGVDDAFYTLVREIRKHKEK
Sequence of HRAS (P01112 with tags, fused parts or gaps): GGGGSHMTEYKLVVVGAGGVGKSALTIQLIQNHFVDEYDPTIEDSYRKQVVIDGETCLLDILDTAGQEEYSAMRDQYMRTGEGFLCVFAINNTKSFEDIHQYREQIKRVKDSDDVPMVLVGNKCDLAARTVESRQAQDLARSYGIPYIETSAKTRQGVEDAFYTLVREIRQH

Structure (SMILES) | IC50 (KRAS-WT) [nM] | IC50 [1] [nM] | IC50 (KRAS-G12D) [nM] | IC50 (KRAS-G12V) [nM] | IC50 (KRAS-G13D) [nM] | IC50 (HRAS) [nM] | IC50 (MKN-1 cells; 2 hours compound incubation) [nM] | IC50 (AsPC-1 cells; 2 hours compound incubation) [nM] | IC50 (SW620 cells; [2]) [nM] | IC50 (MKN-1 cells; amplified wild-type KRAS, 2 hours) [nM] | IC50 (AsPC-1 cells; KRAS-G12D, 2 hours) [nM] | IC50 (SW620 cells; SW-620, KRAS-G12V, 2 hours) [nM]
C[C@H](N(C)C)[C@@]1(COc2nc(N3CCOC[C@@](C)(O)C3)c3c(n2)sc2c(-c4c(C5CC5)c(Cl)cc5[nH]ncc45)nccc23)CC1(F)F [Ex-215, (6S)-4-(8-(6-chloro-5-cyclopropyl-1H-indazol-4-yl)-2-(((R)-1-((S)-1-(dimethylamino)-ethyl)-2,2-difluoro-cyclopropyl)meth-oxy)pyrido[4′,3′: 4,5]thieno[2,3-d]pyrimidin-4-yl)-6-methyl-1,4-oxaze-pan-6-ol] | 16 | 105 | 3.75 | 20.9 | 38.9 | 1610 | 32.6 | 55.9 | 23 |  |  | 
CCC1c2c(cc3[nH]ncc3c2-c2nccc3c2sc2nc(OC[C@@]45CCCN4C/C(=C\F)C5)nc(N4CCOC[C@@](C)(O)C4)c23)CC1(F)F (single isomer, unassigned) [Ex-109] | 6.12 | 34.2 | 4.33 | 5.48 | 4.73 | 8060 |  |  |  | 15.5 | 38.4 | 18.8
C[C@@]1(O)COCCN(c2nc(OC[C@]3(CN4CC5(CC(F)C5)C4)CC3(F)F)nc3sc4c(-c5c(C6CC6)c(Cl)cc6[nH]ncc56)nccc4c23)C1 [Ex-230] | 88.5 | 21.1 | 16 | 70.1 | 13.9 | 1640 | 52.7 | 51.5 | 23.2 |  |  | 
C[C@@]1(O)COCCN(c2nc(OC[C@]3(CN4CC5(CCCOC5)C4)CC3(F)F)nc3sc4c(-c5c(C6(F)CC6)c(Cl)cc6[nH]ncc56)nccc4c23)C1 [Ex-249, (6S)-4-(2-(((R)-1-((6-oxa-2-azaspiro[3.5]nonan-2-yl)methyl)-2,2-difluorocyclopropyl)methoxy)-8-(6-chloro-5-(1-fluorocyclopropyl)-1H-indazol-4-yl)pyrido[4′,3′:4,5]thieno[2,3-d]pyrimidin-4-yl)-6-methyl-1,4-oxazepan-6-ol] | 20.2 | 11.4 | 2.69 | 15.5 | 21.3 | 943 | 36.5 | 73.8 | 51.2 |  |  | 

Further compounds by falling IC50 (KRAS-WT), results first:

IC50 (KRAS-WT) [nM] | IC50 [1] [nM] | IC50 (KRAS-G12D) [nM] | IC50 (KRAS-G12V) [nM] | IC50 (KRAS-G13D) [nM] | IC50 (HRAS) [nM] | IC50 (MKN-1 cells; 2 hours compound incubation) [nM] | IC50 (AsPC-1 cells; 2 hours compound incubation) [nM] | IC50 (SW620 cells; [2]) [nM] | Structure (SMILES) | IC50 (MKN-1 cells; amplified wild-type KRAS, 2 hours) [nM] | IC50 (AsPC-1 cells; KRAS-G12D, 2 hours) [nM] | IC50 (SW620 cells; SW-620, KRAS-G12V, 2 hours) [nM]
7.7 | 15.5 | 2.22 | 13.5 | 7.05 | 9790 | 21.2 | 30.9 | 25.8 | CCC1CCc2cc3[nH]ncc3c(-c3nccc4c3sc3nc(OC[C@@]56CCCN5C[C@H](F)C6)nc(N5CCOC[C@@](C)(O)C5)c34)c21 (stereo partly drawn) [Ex-169, (6S)-4-(8-(5-ethyl-1,5,6,7-tetrahydro-cyclopenta[f]indazol-4-yl)-2-(((2R,7aS)-2-fluorotetrahydro-1H-pyrrolizin-7a(5H)-yl)methoxy)pyrido [4′,3′:4,5]thieno[2,3-d]pyrimidin-4-yl)-6-methyl-1,4-oxaze-pan-6-ol] |  |  | 
5.72 | 87.5 | 2.47 | 5.79 | 10.3 | 4190 | 30.7 | 56 | 27.6 | CN1CCC[C@@]2(COc3nc(N4CCOC[C@@](C)(O)C4)c4c(n3)sc3c(-c5c(C6(F)CC6)c(Cl)cc6[nH]ncc56)nccc34)CCC[C@@H]12 [Ex-268, (6S)-4-(8-(6-chloro-5-(1-fluorocyclopropyl)-1H-indazol-4-yl)-2-(((4aS,7aR)-1-methyloctahydro-4aH-cyclopenta[b]pyridin-4a-yl)methoxy)pyri-do[4′,3′:4,5]thi-eno[2,3-d]pyrimidin-4-yl)-6-methyl-1,4-oxazepan-6-ol] |  |  | 
5.56 | 23.5 | 3.26 | 8.11 | 9.94 | 4250 | 18.7 | 23.6 | 24 | C[C@@]1(O)COCCN(c2nc(OC[C@@]34CCCN3C/C(=C\F)C4)nc3sc4c(-c5c(C6(F)CC6)c(Cl)cc6[nH]ncc56)nccc4c23)C1 [Ex-267, (6S)-4-(8-(6-chloro-5-(1-fluorocyclopropyl)-1H-indazol-4-yl)-2-(((S,Z)-2-(fluoromethylene)tetrahydro-1H-pyrrolizin-7a(5H)-yl)methoxy)pyrido[4′,3′:4,5]thieno[2,3-d]pyrimidin-4-yl)-6-methyl-1,4-oxazepan-6-ol] |  |  | 
5.37 | 19 | 2.72 | 11.9 | 5.48 | 3310 | 23.5 | 19.4 | 9.81 | C=C1CN2CCC[C@@]2(COc2nc(N3CCOC[C@@](C)(O)C3)c3c(n2)sc2c(-c4c(C5CC5)c(Cl)cc5[nH]ncc45)nccc23)C1 [Ex-224, (6S)-4-(8-(6-chloro-5-cyclopropyl-1H-indazol-4-yl)-2-(((S)-2-methylene-tetrahydro-1H-pyrrolizin-7a(5H)-yl)methoxy)pyrido [4′,3′:4,5]thieno[2,3-d]pyrimidin-4-yl)-6-methyl-1,4-oxaze-pan-6-ol] |  |  | 
5 | 23.3 | 3.28 | 4.82 | 10.1 | 10300 | 16.1 | 23.4 | 8.1 | CCc1c(F)ccc2cc3[nH]ncc3c(-c3nccc4c3sc3nc(OC[C@@]56CCCN5C[C@H](F)C6)nc(N5CCOC[C@@](C)(O)C5)c34)c12 [Ex-167, (6S)-4-(8-(5-ethyl-6-fluoro-1H-benzo[f]indazol-4-yl)-2-(((2R,7aS)-2-fluorotetrahydro-1H-pyrrolizin-7a(5H)-yl)methoxy)pyrido[4′,3′:4,5]thieno[2,3-d]pyrimidin-4-yl)-6-methyl-1,4-oxazepan-6-ol] |  |  | 
